Measurements from publication PMC9558053, “Development of a novel high-throughput screen for the identification of new inhibitors of protein S-acylation” (The Journal of Biological Chemistry, 2022).

What was measured:
Format in all cases: cell-based
Settings in all cases: 25 μM
human zDHHC2 = target: T1, human zDHHC2 (Homo sapiens, UniProt Q9UIJ5); assay: PSD95-mCHERRY S-acylation in HEK293T cells co-expressing zDHHC2
T1 construct: expressed in transfected cells; host or cells: HEK293T
T1 sequence (Q9UIJ5 1-367): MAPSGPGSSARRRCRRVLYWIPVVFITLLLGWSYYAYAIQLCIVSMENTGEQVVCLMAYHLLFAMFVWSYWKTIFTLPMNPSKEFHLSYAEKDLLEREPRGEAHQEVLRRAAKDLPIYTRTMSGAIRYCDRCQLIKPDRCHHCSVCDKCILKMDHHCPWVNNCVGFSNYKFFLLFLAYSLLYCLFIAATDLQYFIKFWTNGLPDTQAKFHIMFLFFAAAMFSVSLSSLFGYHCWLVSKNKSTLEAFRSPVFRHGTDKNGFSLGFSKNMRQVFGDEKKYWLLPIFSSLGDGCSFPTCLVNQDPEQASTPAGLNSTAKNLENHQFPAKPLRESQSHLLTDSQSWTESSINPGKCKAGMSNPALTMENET
Source text: (§1) PSD95 (postsynaptic density protein 95) is a major S-acylated protein that has a critical role in the maturation of excitatory neurons and in synaptic plasticity ([46], [47]). PSD95 can be S-acylated by zDHHC2, zDHHC3, zDHHC7, and zDHHC15 ([6]). […] We therefore tested the effects of TTZ-1 and TTZ-2 on the S-acylation of PSD95 mediated by zDHHC2, zDHHC3, zDHHC7, and zDHHC15. […] In contrast, zDHHC3 and zDHHC7 activities toward PSD95 were unaffected by TTZ-1 and TTZ-2, mirroring the data obtained with GFP-SNAP25 as a substrate.
(§2) Figure 9 Activity of TTZ-1 and TTZ-2 against PSD95 S-acylation mediated by human zDHHC2, zDHHC3, zDHHC7, and zDHHC15 expressed in mammalian cells. HEK293T cells were transfected with a plasmid encoding PSD95-mCHERRY together with either a control plasmid pEF-BOS-HA (pEF) or a plasmid encoding either HA-tagged human zDHHC2 (zD2), zDHHC3 (zD3), zDHHC7 (zD7), or zDHHC15 (zD15) for 24 h. Cells were then preincubated for 4 h with TTZ-1 or TTZ-2 (25 μM final) or DMSO control before metabolic labeling with 100 μM C16:0-azide for 4 h. Cells were lysed, and proteins having incorporated C16:0-azide were labeled by click chemistry with an alkyne-IR800 dye. […] The data were quantified, and the graphs below each set of membranes show mean ± SEM of normalized S-acylation of PSD95-mCHERRY (click signal/RFP signal). […]

human zDHHC3 = target: T2, human zDHHC3 (Homo sapiens, UniProt Q9NYG2); assay: PSD95-mCHERRY S-acylation in HEK293T cells co-expressing zDHHC3
T2 construct: expressed in transfected cells; host or cells: HEK293T
T2 sequence (Q9NYG2 1-299): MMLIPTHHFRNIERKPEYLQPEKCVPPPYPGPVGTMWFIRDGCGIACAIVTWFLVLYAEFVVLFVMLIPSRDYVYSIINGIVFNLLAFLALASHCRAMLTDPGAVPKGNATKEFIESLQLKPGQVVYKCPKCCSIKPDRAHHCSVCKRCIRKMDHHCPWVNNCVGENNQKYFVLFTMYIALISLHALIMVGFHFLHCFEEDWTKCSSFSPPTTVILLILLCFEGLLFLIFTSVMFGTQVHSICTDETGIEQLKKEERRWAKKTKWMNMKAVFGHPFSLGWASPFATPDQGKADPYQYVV
Source text: as §1, §2

human zDHHC7 = target: T3, human zDHHC7 (Homo sapiens, UniProt Q9NXF8); assay: PSD95-mCHERRY S-acylation in HEK293T cells co-expressing zDHHC7
T3 construct: expressed in transfected cells; host or cells: HEK293T
T3 sequence (Q9NXF8 1-308): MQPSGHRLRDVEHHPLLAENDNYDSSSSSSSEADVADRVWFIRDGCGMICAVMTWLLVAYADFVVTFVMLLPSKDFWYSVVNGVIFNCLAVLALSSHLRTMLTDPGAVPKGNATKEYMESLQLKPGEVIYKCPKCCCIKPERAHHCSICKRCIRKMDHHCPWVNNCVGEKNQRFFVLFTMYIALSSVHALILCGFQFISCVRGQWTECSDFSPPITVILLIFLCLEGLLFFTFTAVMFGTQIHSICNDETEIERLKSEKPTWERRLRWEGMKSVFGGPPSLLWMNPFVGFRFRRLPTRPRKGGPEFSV
Source text: as §1, §2

| Structure (SMILES) | PSD95-mCHERRY S-acylation by zDHHC2 (human zDHHC2) | PSD95-mCHERRY S-acylation by zDHHC3 (human zDHHC3) | PSD95-mCHERRY S-acylation by zDHHC7 (human zDHHC7) |
| --- | --- | --- | --- |
| CCCCCCCOc1ccc(C(=O)Nc2cccc3c2OC(c2nnn[nH]2)CN3)cc1 (stereo not drawn) [TTZ-1, N-(2-(1H-Tetrazol-5-yl)-3,4-dihydro-2H-benzo[b][1,4]oxazin-8-yl)-4-(heptyloxy)benzamide] | significantly inhibited | unaffected | unaffected |
| O=C(Nc1cccc2c1OC(c1nnn[nH]1)CN2)c1ccc(OCCCCc2ccccc2)cc1 (stereo not drawn) [TTZ-2, N-(2-(1H-Tetrazol-5-yl)-3,4-dihydro-2H-benzo[b][1,4]oxazin-8-yl)-4-(4-phenylbutoxy)benzamide] | significantly inhibited | unaffected | unaffected |
